Assay results: the NIST ThermoML archive (doi:10.1016/j.jct.2015.12.021)

Settings: Liquid

Cc1ccc(C)c(C)c1 [1,2,4-trimethylbenzene]
viscosity [mPa·s]
Settings | 293.15 K | 313.15 K | 333.15 K | 353.15 K
100 kPa, Vibrating wire viscometry | 0.8929 | 0.6989 | 0.5596 | 0.4527
1000 kPa, Vibrating wire viscometry | 0.9065 | 0.7096 | 0.5646 | 0.4566
5000 kPa, Falling or rolling sphere viscometry | 0.913 | 0.7254 | 0.5819 | 0.4715
5000 kPa, Vibrating wire viscometry | 0.9417 | 0.7359 | 0.5885 | 0.4711
10000 kPa, Falling or rolling sphere viscometry | 0.9568 | 0.7531 | 0.6058 | 0.492
10000 kPa, Vibrating wire viscometry | 0.9769 | 0.7606 | 0.6066 | 0.4886
20000 kPa, Falling or rolling sphere viscometry | 1.042 | 0.8131 | 0.6529 | 0.532
20000 kPa, Vibrating wire viscometry | 1.061 | 0.8203 | 0.6476 | 0.5283
30000 kPa, Falling or rolling sphere viscometry | 1.137 | 0.8704 | 0.7014 | 0.571
30000 kPa, Vibrating wire viscometry | 1.148 | 0.8894 | 0.6942 | 0.5626
40000 kPa, Falling or rolling sphere viscometry | 1.224 | 0.9344 | 0.7504 | 0.6125
40000 kPa, Vibrating wire viscometry | 1.233 | 0.9528 | 0.7426 | 0.5993
50000 kPa, Vibrating wire viscometry | 1.336 | 1.026 | 0.7922 | 0.6375
60000 kPa, Falling or rolling sphere viscometry | – | 1.07 | 0.8467 | 0.6967
60000 kPa, Vibrating wire viscometry | 1.435 | 1.1 | 0.8456 | 0.6768
70000 kPa, Vibrating wire viscometry | 1.566 | 1.171 | 0.9004 | 0.7177
80000 kPa, Falling or rolling sphere viscometry | – | 1.25 | 0.9594 | 0.7819
80000 kPa, Vibrating wire viscometry | 1.693 | 1.249 | 0.9675 | 0.7606
100000 kPa, Falling or rolling sphere viscometry | – | – | 1.086 | 0.8778
100000 kPa, Vibrating wire viscometry | 1.952 | 1.415 | 1.094 | 0.8518
120000 kPa, Falling or rolling sphere viscometry | – | – | 1.228 | 0.9727
120000 kPa, Vibrating wire viscometry | 2.288 | 1.599 | 1.221 | 0.9515
140000 kPa, Vibrating wire viscometry | 2.668 | 1.824 | 1.343 | 1.065

CC(C)CC(C)(C)C [2,2,4-trimethylpentane]
viscosity [mPa·s]
Settings | 293.15 K | 298.15 K | 313.15 K | 323.15 K | 333.15 K | 348.15 K | 353.15 K
100 kPa, Vibrating wire viscometry | 0.5064 | 0.4746 | 0.4035 | 0.3645 | 0.3265 | 0.2829 | 0.2738
1000 kPa, Vibrating wire viscometry | 0.51 | 0.4819 | 0.4114 | 0.3694 | 0.3296 | 0.2863 | 0.2748
5000 kPa, Falling or rolling sphere viscometry | 0.5412 | – | 0.4251 | – | 0.3468 | – | –
5000 kPa, Vibrating wire viscometry | 0.5399 | 0.509 | 0.4353 | 0.3915 | 0.3515 | 0.306 | 0.2923
10000 kPa, Falling or rolling sphere viscometry | 0.5744 | – | 0.4517 | – | 0.37 | – | –
10000 kPa, Vibrating wire viscometry | 0.5733 | 0.5388 | 0.4633 | 0.4157 | 0.3754 | 0.3274 | 0.3175
20000 kPa, Falling or rolling sphere viscometry | 0.6401 | – | 0.5129 | – | 0.4153 | – | –
20000 kPa, Vibrating wire viscometry | 0.6366 | 0.6027 | 0.5177 | 0.464 | 0.4216 | 0.3692 | 0.357
30000 kPa, Falling or rolling sphere viscometry | 0.7047 | – | 0.5662 | – | 0.459 | – | –
30000 kPa, Vibrating wire viscometry | 0.7059 | 0.6672 | 0.5775 | 0.5146 | 0.4705 | 0.4131 | 0.3966
40000 kPa, Falling or rolling sphere viscometry | 0.7738 | – | 0.6128 | – | 0.5083 | – | –
40000 kPa, Vibrating wire viscometry | 0.7817 | 0.7394 | 0.6351 | 0.5714 | 0.5232 | 0.4565 | 0.4379
50000 kPa, Vibrating wire viscometry | 0.8608 | 0.8154 | 0.6902 | 0.6255 | 0.579 | 0.5022 | 0.4853
60000 kPa, Falling or rolling sphere viscometry | 0.9262 | – | 0.7307 | – | 0.6083 | – | –
60000 kPa, Vibrating wire viscometry | 0.9567 | 0.8956 | 0.7509 | 0.6832 | 0.6246 | 0.5476 | 0.5294
70000 kPa, Vibrating wire viscometry | 1.042 | 0.9815 | 0.8173 | 0.742 | 0.6779 | 0.6049 | 0.5738
80000 kPa, Falling or rolling sphere viscometry | 1.115 | – | 0.8553 | – | 0.6981 | – | –
80000 kPa, Vibrating wire viscometry | 1.127 | 1.07 | 0.8861 | 0.7969 | 0.728 | 0.6507 | 0.6288
100000 kPa, Falling or rolling sphere viscometry | 1.298 | – | 1.024 | – | 0.8101 | – | –
100000 kPa, Vibrating wire viscometry | 1.316 | 1.234 | 1.045 | 0.9249 | 0.8361 | 0.7538 | 0.7176
120000 kPa, Falling or rolling sphere viscometry | – | – | 1.185 | – | 0.9406 | – | –
120000 kPa, Vibrating wire viscometry | 1.518 | 1.435 | 1.195 | 1.068 | 0.9606 | 0.864 | 0.8245
140000 kPa, Vibrating wire viscometry | 1.739 | 1.648 | 1.363 | 1.21 | 1.095 | 0.977 | 0.9332
